Assay results reported in ChEMBL document CHEMBL1201862, “PubChem BioAssay data set” (2004).
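Interpolation was linear, between the two tested concentrations surrounding the appropriate level; five concentrations were tested over 48 hours in 96-well plates. The concentration for 50% growth inhibition is given as GI50.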 Calls of active or inactive are those of the source. No stated cut-off is given here; in the data, active = GI50 up to about 1.1 µM and inactive = higher.

Tests used:
Assay in all cases: NCI tumour cell line growth inhibition, 48 h
BT-549 = system: BT-549
SK-MEL-5 = system: SK-MEL-5
NCI-H226 = system: NCI-H226
RXF 393 = system: RXF 393
CCRF-CEM = system: CCRF-CEM
SNB-19 = system: SNB-19
CAKI-1 = system: CAKI-1
NCI-H522 = system: NCI-H522
SW-620 = system: SW-620
SK-OV-3 = system: SK-OV-3
SN12C = system: SN12C
SR = system: SR
UO-31 = system: UO-31
HCC 2998 = system: HCC 2998
NCI/ADR-RES = system: NCI/ADR-RES
SK-MEL-28 = system: SK-MEL-28
UACC-257 = system: UACC-257
HL-60 = system: HL-60
OVCAR-3 = system: OVCAR-3
A498 = system: A498

Measured: GI50

C[C@]12CC[C@H]3[C@@H](CC=C4C[C@@H](O)CC[C@@]43C)[C@@H]1C/C(=C\c1ccncc1)[C@@H]2O
inactive: BT-549 3.51 µM | SK-MEL-5 8.51 µM | NCI-H226 17.7 µM | RXF 393 18.1 µM | CCRF-CEM 19.5 µM | SNB-19 21.2 µM | CAKI-1 18.1 µM | NCI-H522 16.3 µM | SW-620 31.1 µM | SK-OV-3 28.3 µM | SN12C 17.2 µM | SR 8.87 µM | UO-31 27.1 µM | HCC 2998 31.8 µM | NCI/ADR-RES 17.3 µM | SK-MEL-28 18.1 µM | UACC-257 17.3 µM | HL-60 10.2 µM | OVCAR-3 23.7 µM | A498 13.9 µM
